The text below walks through data of ChEMBL document CHEMBL1165963, “Bryonolic acid: a large-scale isolation and evaluation of heme oxygenase 1 expression in activated macrophages” (2010).

Calls of active or inactive are those of the source. The calls are words filed in the database; no cut-off is given here.

The subject of experiment [1] is RAW264.7. The experiment can be described thus: Immunomodulatory effect in LPS-stimulated mouse RAW264.7 cells assessed as increase in heme oxygenase 1 expression after 24 hrs by Western blot. Type of experiment: functional, cell-based.
Experiment [2] concerns RAW264.7. The experiment can be described thus: Effect on iNOS expression in mouse RAW264.7 cells after 24 hrs by Western blot. Type of experiment: functional, cell-based.
Experiment [3] has as its system RAW264.7. The experiment can be described thus: Immunomodulatory effect in LPS-stimulated mouse RAW264.7 cells assessed as increase in heme oxygenase 1 expression at 50 uM after 24 hrs by Western blot relative to untreated control. Type of experiment: functional.
In experiment [4] the test system is RAW264.7. The experiment can be described thus: Immunomodulatory effect in LPS-stimulated mouse RAW264.7 cells assessed as increase in heme oxygenase 1 expression at 100 uM after 24 hrs by Western blot relative to LPS. Type of experiment: functional.
The test system of experiment [5] is RAW264.7. The experiment can be described thus: Immunomodulatory effect in LPS-stimulated mouse RAW264.7 cells assessed as increase in heme oxygenase 1 expression at 50 uM after 24 hrs by Western blot relative to LPS. The class given is functional.
For experiment [6], the system named is RAW264.7. The experiment can be described thus: Effect on COX2 expression in mouse RAW264.7 cells after 24 hrs by Western blot. Type of experiment: functional, cell-based.
The test system of experiment [7] is RAW264.7. The experiment can be described thus: Immunomodulatory effect in LPS-stimulated mouse RAW264.7 cells assessed as increase in heme oxygenase 1 expression at 100 uM after 24 hrs by Western blot relative to untreated control. Type of experiment: functional.

As to `CC1(C)[C@@H](O)CC[C@]2(C)C3=C(CC[C@@H]12)[C@@]1(C)CC[C@@]2(C)CC[C@@](C)(C(=O)O)C[C@H]2[C@]1(C)CC3` [BRYONOLIC ACID], the Activity entry in experiment [1] is “Dose-dependent effect”. The result in experiment [2] and in experiment [6] was inactive. For the same molecule, the “fold change (FC)” value in experiment [3] was determined as 13; in experiment [4], 14; in experiment [5], 3.3; in experiment [7], 55.
